Read-outs that look alike come from different tables or passages of the source.
What was measured:
[1] = Methoprene blood concentrations in dogs following a single oral dose (gas chromatography); assay type: in vivo; conditions: single oral dose 50 mg/kg
Experimental: Six healthy mixed breed dogs, three male and three female, of weight ranging from 14 to 22 kg per dog and ages ranging from 2 to 5 years, were utilized. For each dog, a gelatin capsule containing a measured volume of (S)-methoprene was prepared, based on the dog's weight to yield a dose of 50 mg/kg of the dog's body weight in a single gelatin capsule for each dog. The dogs were fasted 24 hours before administration of their individual capsules, and dosing was achieved by placing the capsule in the back of each dog's throat and causing the dog to swallow. Food was then withheld for an additional 8 hours, although water was always available, and the dogs were fed once the following morning.
At each sampling time, 50 mL of blood was collected from the femoral vein of each dog into two 25-mL syringes. Samples were taken seven days prior to dosing (to establish a baseline), followed by three hours, 1 day, 2 days, 4 days, and 7 days after dosing.
To prepare the blood samples for methoprene content determinations, each 25-mL blood sample was mixed with 200 mL acetonitrile, 25 g anhydrous Na2SO4, and 10 g CELITE® in a blender for three one-minute segments, allowing the blender blades to cool for thirty seconds between segments. The mixture was then vacuum filtered, including a wash with 50 mL acetonitrile. The filtrate was extracted with petroleum ether for one minute, then diluted with 700 mL deionized water. To this was added 50 g NaCI and the solution was acidified to pH 2 with 0.5 N HCl. The aqueous phase was then discarded, and the petroleum ether phase was washed twice with 600 mL of deionized water. The petroleum ether was then filtered through a glass wool plug topped with 50 g Na2SO4. The Na2SO4 was then rinsed with 15 mL petroleum ether, and the extractant concentrated to 10 mL in a rotary evaporator, using a bath temperature of 30°C. The concentrated extractant was then stored in a refrigerator until the next step in the analysis.
Extraction columns were prepared by heat activating FLORISIL® (magnesium silicate absorbent) at 200°C for 24 hours, then allowing the FLORISIL to cool for 45 minutes, adding 5 mL of distilled water per 50 g of FLORISIL, shaking the mixture, and allowing it to equilibrate for 3 hours. A glass column with 28 mm intemal diameter was plugged with glass wool and filled with petroleum ether. A 1-cm layer of Na2SO4 was slowly poured into the column, followed by 6.5 cm of FLORISIL and 1.5 cm of Na2SO4. The petroleum ether was then drained until it reached the layer of Na2SO4. The extractant from the preceding paragraph was then loaded into the top of the column with a glass pipette, and its content rinsed with petroleum ether and added to the column. The column was then drained until the solvent layer was above the Na2SO4, and the eluant was discarded. Elution was then performed with 1 L of 5% diethyl ether/petroleum ether for each sample, and fractions of 175 mL and 825 mL were collected. The 825 mL fraction was then evaporated to 5 mL and stored in a refrigerator.
To prepare the 825 mL fraction for gas chromatography, one mL of internal standard was added to the sample, and the sample volume was evaporated to approximately 0.3 mL with nitrogen. Two aliquots of 5 µL each were injected on a gas chromatograph (Perkin Elmer, Sigma 300, with hydrogen flame ionization detector and data system) equipped with a 6-foot-by 1/4-inch glass column with 3% OV-101 Chrom W HP 100/120 mesh packing, using nitrogen at 60 mUmin as the carrier gas, and injector, column and detector temperatures of 300°C, 166°C, and 280°C, respectively.

[2] = test system: adult cat fleas; test: Flea ovicidal activity in vitro: artificial feeding system with treated beef blood (Examples 4 and 6); parameters: species or system C. felis; conditions: Ctenocephalides felis; for inhibition at 0.05 ppm: 0.05 ppm in beef blood; for inhibition at 0.075 ppm: 0.075 ppm in beef blood; for inhibition at 0.1 ppm: 0.1 ppm in beef blood; for inhibition at 0.25 ppm: 0.25 ppm in beef blood; for inhibition at 0.5 ppm: 0.5 ppm in beef blood
From the text: For the in vitro tests, an artificial feeding system with cages for adult cat fleas C. felis was used as described by Wade, S.E., et al., J. Med. Ent. 25(3): 186-190 (May 1988). Inside each cage were placed 100 one-week-old, unfed adult C. fells. Each cage included a container for treated blood separated from the fleas by a PARAFILM® membrane, and a compartment containing thin strips of paper to support loosely arranged clean dog hair and to provide a foothold for the fleas as they fed on the blood through the membrane.
The artificial feeding system and cages for adult cat fleas described in Example 3 were used. Beef blood was used for the feeding system, and was prepared by adding 35 mL of a 20% sodium citrate solution per liter of blood to prevent clotting. A stock solution of lufenuron was prepared by adding 50.1 mg of technical lufenuron to 4.951 g of dimethyl sulfoxide (DMSO) to yield a 1.0% solution. A 1,000 ppm solution was then prepared by diluting 1.0 mL of the 1.0% solution in 9.0 mL of DMSO, and a 100 ppm solution was prepared by diluting 1.0 mL of the 1,000 ppm solution in 9.0 mL of DMSO. Dimethyl sulfoxide itself was used as a control. To treat the blood, the various solutions (0.05 mL) were added to the citrated beef blood (100.0 mL) to yield beef blood solutions containing 5.0 ppm, 0.5 ppm, 0.05 ppm, and 0.00 (zero) ppm lufenuron. Each solution was mixed thoroughly, and 10 mL at each concentration were placed in each of five feeders in the artificial feeding system to serve as replicates. Each day fresh blood solutions identical to the originals were placed in the feeders.
Flea eggs were collected from each replicate on days 3, 5 and 7. One hundred (100) healthy appearing […] were counted under a dissecting microscope from each replicate, divided into two subsamples per replicate, and placed in 60 mm x 15 mm plastic petri dishes. The samples were incubated at 78°F and 85% relative humidity for three days, then scored for larval hatch using by visual observation through the dissecting microscope. The data from all replicates at each concentration were combined to yield the mean percent egg hatch, and the percent inhibition of egg hatch was calculated relative to the control.
Retuming to (S)-methoprene, this example presents in vitro flea ovicidal activity using beef blood, for comparison with Example 4. Procedures using beef blood were the same as those indicated in the previous examples.

[3] = average over days, read-out: Percent Inhibition of Flea Egg Hatching, averages
[4] = 72 h, day 3, read-out: Percent Inhibition of Flea Egg Hatching
[5] = 120 h, day 5, read-out: Percent Inhibition of Flea Egg Hatching
[6] = 144 h, day 6, read-out: Percent Inhibition of Flea Egg Hatching
[7] = 240 h, day 10, read-out: Percent Inhibition of Flea Egg Hatching

Compound `COC(C)(C)CCC[C@H](C)C/C=C/C(C)=C/C(=O)OC(C)C` [(S)-Methoprene, 1-isopropyl (E,E)-11-methoxy-3,7,11-trimethyl dodecadi-2,4-enoate] has a concentration at 0 h ([1]; both sexes, mixed breed, dog, in vivo, mean of six dogs, 0 hours (baseline, seven days prior to dosing)) of 0 ng/mL, a concentration at 3 h ([1]; both sexes, mixed breed, dog, in vivo, mean of six dogs, 3 hours) of 547 ng/mL and a concentration at 24 h ([1]; both sexes, mixed breed, dog, in vivo, mean of six dogs, 24 hours) of 85 ng/mL. For the same compound, the concentration at 48 h ([1]; both sexes, mixed breed, dog, in vivo, mean of six dogs, 48 hours) was 104 ng/mL, the “time by which methoprene level fell below detectable amounts” value ([1]; remaining four of the six dogs) was at most 96 h and the “time (S)-methoprene remains in the dogs' blood” value [1] was 48 to 96 h. The “time by which methoprene level fell below detectable amounts” value ([1]; two of the six dogs) was at most 48 h, the inhibition at 0.05 ppm [2, 3] was 56.4% and the inhibition at 0.075 ppm ([2]; average of a and b, read-out: Percent Inhibition of Flea Egg Hatching, averages) was 72%. The inhibition at 0.1 ppm [2, 3] was 96.6%, the inhibition at 0.25 ppm [2, 3] was 99.5% and the inhibition at 0.5 ppm [2, 3] was 99.8%. The inhibition at 0.05 ppm [2, 4] was 47.3%, the inhibition at 0.5 ppm [2, 4] was 99.1% and the inhibition at 0.1 ppm [2, 5] was 97.4%. It also gave an inhibition at 0.25 ppm [2, 5] of 100%, an inhibition at 0.1 ppm [2, 6] of 95.7% and an inhibition at 0.25 ppm [2, 6] of 99%. It also gave an inhibition at 0.5 ppm ([2]; 168 h, day 7, read-out: Percent Inhibition of Flea Egg Hatching) of 100%, an inhibition at 0.075 ppm ([2]; 192 h, day 8, entry a, read-out: Percent Inhibition of Flea Egg Hatching) of 66% and an inhibition at 0.075 ppm ([2]; 192 h, day 8, entry b, read-out: Percent Inhibition of Flea Egg Hatching) of 78%. The inhibition at 0.05 ppm [2, 7] was 65.4%, the inhibition at 0.5 ppm [2, 7] was 100% and the inhibition at 0.5 ppm ([2]; 312 h, day 13, read-out: Percent Inhibition of Flea Egg Hatching) was 100%.

Source: patent EP0923292B1, “IMPROVED METHOD FOR SYSTEMIC ADMINISTRATION OF 2,4-DIENOIC ACID-TYPE INSECTICIDES TO TERRESTRIAL MAMMALS” (priority 1996, dated 1998)
